Experimental data: patent US20030119067A1, “PYK2 related products and methods” (Sugen, Inc., priority 1996, published 2003)

System: PYK-2
Assay: Tyrosine phosphorylation of PYK-2 in NIH3T3 cells overexpressing PYK-2
Type: cell-based
Conditions: NIH3T3 cells overexpressing PYK-2 / PYK-2-HA; TPA 6 μM, 15 min, 37° C.
From the text: The PYK-2 cDNA cloned in pLSV was cotransfected with pSV2neo into PC12 cells and NIH3T3 in order to establish stable cell lines. G418 resistant colonies were screened by immunoprecipitating and immunoblotting.
NIH3T3 cell lines were established that overexpress the PYK-2 and the PYK-2-HA protein. […] The level of phosphorylation is not so high.

## CCCCCCCCCCCCCC(=O)O[C@@H]1[C@@H](C)[C@@]2(O)[C@@H](C=C(CO)C[C@]3(O)C(=O)C(C)=C[C@@H]23)[C@@H]2C(C)(C)[C@]12OC(C)=O [PMA, phorbol 12-myristate 13-acetate]
  tyrosine phosphorylation of PYK-2: stronger effect
